ChEMBL document CHEMBL4699511, “Cedrol, a Sesquiterpene Alcohol, Enhances the Anticancer Efficacy of Temozolomide in Attenuating Drug Resistance via Regulation of the DNA Damage Response and MGMT Expression” (J Nat Prod, 2020)
Calls of active or inactive are those of the source. The rule behind the calls is not given here.

Legend:
[1] = target: T1, MAP kinase p38 (Homo sapiens) (UniProt O15264+Q15759+Q16539+P53778); assay: Inhibition of p38 phosphorylation at Tyr182 residues in human DBTRG-05MG cells at 206 uM after 48 hrs by Western blot analysis (reference value: 1); type: cell-based
DBTRG-05MG [2] = assay: Induction of cell cycle arrest in human DBTRG-05MG cells assessed as CDK2 expression at 206 uM after 48 hrs by Western blot analysis (reference value: 1); type: functional
[3] = Toxicity in BALB/c mouse xenografted with DBTRG-05MG cells assessed as reduction in body weight at 5 mg/kg, ip after 5 days measured every 2 days; type: organism-based; settings: in vivo, 120 h, time 5 day
DBTRG-05MG [4] = assay: Inhibition of JNK phosphorylation at Thr183/Tyr185 residues in human DBTRG-05MG cells at 206 uM after 48 hrs by Western blot analysis (reference value: 1); type: cell-based
[5] = target: T2, Serine/threonine-protein kinase AKT (Homo sapiens) (UniProt P31751+Q9Y243+P31749); assay: Inhibition of AKT phosphorylation at S473 residues in human DBTRG-05MG cells at 206 uM after 48 hrs by Western blot analysis; type: cell-based
T2 sequence (P31749 whole entry, looked up): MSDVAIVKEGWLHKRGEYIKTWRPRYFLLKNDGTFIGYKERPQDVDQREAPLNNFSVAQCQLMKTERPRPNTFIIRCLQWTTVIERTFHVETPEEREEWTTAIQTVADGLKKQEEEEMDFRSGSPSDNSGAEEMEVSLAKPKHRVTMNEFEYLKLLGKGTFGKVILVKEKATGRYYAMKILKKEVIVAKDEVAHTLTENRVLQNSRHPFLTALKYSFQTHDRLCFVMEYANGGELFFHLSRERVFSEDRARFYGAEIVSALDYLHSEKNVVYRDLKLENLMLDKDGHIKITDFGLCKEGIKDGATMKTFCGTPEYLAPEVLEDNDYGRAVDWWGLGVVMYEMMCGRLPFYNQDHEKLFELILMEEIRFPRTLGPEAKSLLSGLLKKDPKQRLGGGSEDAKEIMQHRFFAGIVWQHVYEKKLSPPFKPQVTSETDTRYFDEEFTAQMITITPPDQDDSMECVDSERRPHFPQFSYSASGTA
T2 sequence (P31751 whole entry, looked up): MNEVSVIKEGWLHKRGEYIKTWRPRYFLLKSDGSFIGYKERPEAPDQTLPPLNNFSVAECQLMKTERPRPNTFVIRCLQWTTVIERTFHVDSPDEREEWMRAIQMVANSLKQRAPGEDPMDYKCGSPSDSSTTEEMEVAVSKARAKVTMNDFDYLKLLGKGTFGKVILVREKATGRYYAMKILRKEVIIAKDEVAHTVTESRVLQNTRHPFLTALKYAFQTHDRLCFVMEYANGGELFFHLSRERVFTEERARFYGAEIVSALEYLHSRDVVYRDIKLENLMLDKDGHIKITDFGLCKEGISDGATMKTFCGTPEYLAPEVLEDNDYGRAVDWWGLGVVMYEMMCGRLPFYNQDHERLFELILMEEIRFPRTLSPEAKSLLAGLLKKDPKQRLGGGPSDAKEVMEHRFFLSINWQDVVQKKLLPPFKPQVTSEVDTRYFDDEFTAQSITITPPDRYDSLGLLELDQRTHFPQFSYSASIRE
T2 sequence (Q9Y243 whole entry, looked up): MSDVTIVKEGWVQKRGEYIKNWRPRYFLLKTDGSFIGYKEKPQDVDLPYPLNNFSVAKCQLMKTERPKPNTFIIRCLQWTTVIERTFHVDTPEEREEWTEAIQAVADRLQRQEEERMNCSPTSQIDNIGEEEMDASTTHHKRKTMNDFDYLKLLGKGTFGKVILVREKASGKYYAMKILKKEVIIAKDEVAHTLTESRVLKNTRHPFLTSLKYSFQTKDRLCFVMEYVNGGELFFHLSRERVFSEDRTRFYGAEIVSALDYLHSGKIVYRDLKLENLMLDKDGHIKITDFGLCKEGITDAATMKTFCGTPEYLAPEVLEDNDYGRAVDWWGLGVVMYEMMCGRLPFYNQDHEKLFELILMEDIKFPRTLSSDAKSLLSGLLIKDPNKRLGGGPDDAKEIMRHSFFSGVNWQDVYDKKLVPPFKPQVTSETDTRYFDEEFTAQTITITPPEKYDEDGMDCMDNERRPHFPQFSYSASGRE

RG2 [6] = assay: Induction of cell cycle arrest in rat RG2 cells assessed as accumulation at S phase at 206 uM after 6 hrs by propidium iodide staining based flow cytometric analysis (reference value: 20.15 +/- 2.44%); type: functional
DBTRG-05MG [7] = assay: Induction of cell cycle arrest in human DBTRG-05MG cells assessed as accumulation at G2/M phase at 206 uM after 24 hrs by propidium iodide staining based flow cytometric analysis (reference value: 30.08 +/- 0.1%); type: functional
RG2 [8] = assay: Inhibition of JNK phosphorylation at Thr183/Tyr185 residues in rat RG2 cells at 206 uM after 48 hrs by Western blot analysis (reference value: 1); type: cell-based
RG2 [9] = assay: Induction of apoptosis in rat RG2 cells assessed as cleaved PARP expression at 206 uM after 48 hrs by Western blot analysis (reference value: 1); type: functional
RG2 [10] = assay: Induction of apoptosis in rat RG2 cells assessed as phosphorylated PARP expression at 206 uM after 48 hrs by Western blot analysis (reference value: 1); type: functional
DBTRG-05MG [11] = assay: Induction of cell cycle arrest in human DBTRG-05MG cells assessed as CyclinD1 expression at 206 uM after 48 hrs by Western blot analysis (reference value: 1); type: functional
RG2 [12] = assay: Induction of apoptosis in rat RG2 cells assessed as cleaved caspace-3 expression at 112.4 uM after 48 hrs in presence of TMZ by Western blot analysis (reference value: 1); type: functional
RG2 [13] = assay: Synergistic cytotoxicity against rat RG2 cells assessed as combination index at 112.4 uM after 48 hrs in presence of 515.1 uM TMZ by MTT assay; type: functional
RG2 [14] = assay: Synergistic cytotoxicity against rat RG2 cells assessed as combination index at 89.9 uM after 48 hrs in presence of 206 uM TMZ by MTT assay; type: functional
[15] = Synergistic cytotoxicity against rat CTX TNA2 cells assessed as combination index at 134.9 uM after 48 hrs in presence of 515.1 uM TMZ by MTT assay; type: cell-based; settings: ctx tna2, 48 h
[16] = target: T2, Serine/threonine-protein kinase AKT (Homo sapiens); assay: Inhibition of AKT phosphorylation at S473 residues in human DBTRG-05MG cells at 112.4uM after 48 hrs in presence of TMZ by Western blot analysis; type: cell-based
DBTRG-05MG [17] = assay: Potentiation of TMZ-induced antitumor activity against human DBTRG-05MG cells xenografted in BALB/c nude mouse assessed as reduction in tumour growth at 75 mg/kg, sc co-treated with TMZ for 18 days; type: functional, organism-based; settings: time 18.0 day
DBTRG-05MG [18] = assay: Synergistic cytotoxicity against human DBTRG-05MG cells assessed as synergistic effect index at 89.9 uM after 48 hrs in presence of 206 uM TMZ by MTT assay; type: functional
[19] = Effect on ERK expression in rat RG2 cells at 112.4uM after 48 hrs by Western blot analysis (reference value: 1); type: functional
[20] = Synergistic cytotoxicity against rat CTX TNA2 cells assessed as combination index at 112.4 uM after 48 hrs in presence of 206 uM TMZ by MTT assay; type: cell-based; settings: ctx tna2, 48 h
[21] = Synergistic cytotoxicity against rat CTX TNA2 cells assessed as synergistic effect index at 89.9 uM after 48 hrs in presence of 206 uM TMZ by MTT assay; type: cell-based; settings: ctx tna2, 48 h
RG2 [22] = assay: Induction of cell cycle arrest in rat RG2 cells assessed as accumulation at S phase at 112.4 uM after 6 hrs by propidium iodide staining based flow cytometric analysis (reference value: 20.15 +/- 2.44%); type: functional
RG2 [23] = assay: Induction of cell cycle arrest in rat RG2 cells assessed as accumulation at G0/G1 phase at 112.4 uM after 48 hrs by propidium iodide staining based flow cytometric analysis (reference value: 57.81 +/- 1.9%); type: functional
RG2 [24] = assay: Induction of apoptosis in rat RG2 cells assessed as cleaved PARP expression at 112.4 uM after 48 hrs by Western blot analysis (reference value: 1); type: functional
RG2 [25] = assay: Induction of apoptosis in rat RG2 cells assessed as phosphorylated caspace-3 expression at 112.4 uM after 48 hrs in presence of TMZ by Western blot analysis (reference value: 1); type: functional
[26] = Effect of MGMT expression in rat RG2 cells at 112.4 uM after 48 hrs by Western blot analysis (reference value: 1); type: functional
RG2 [27] = assay: Induction of cell cycle arrest in rat RG2 cells assessed as accumulation at S phase at 112.4 uM after 24 hrs by propidium iodide staining based flow cytometric analysis (reference value: 20.15 +/- 2.44%); type: functional
[28] = target: T1, MAP kinase p38 (Homo sapiens); assay: Inhibition of p38 phosphorylation at Tyr182 residues in human DBTRG-05MG cells at 112.4uM after 48 hrs in presence of TMZ by Western blot analysis (reference value: 1); type: cell-based
RG2 [29] = assay: Synergistic cytotoxicity against rat RG2 cells assessed as combination index at 112.4 uM after 48 hrs in presence of 206 uM TMZ by MTT assay; type: functional
[30] = Synergistic cytotoxicity against rat CTX TNA2 cells assessed as combination index at 112.4 uM after 48 hrs in presence of 515.1 uM TMZ by MTT assay; type: cell-based; settings: ctx tna2, 48 h
[31] = Synergistic cytotoxicity against rat CTX TNA2 cells assessed as synergistic effect index at 134.9 uM after 48 hrs in presence of 412.1 uM TMZ by MTT assay; type: cell-based; settings: ctx tna2, 48 h
DBTRG-05MG [32] = assay: Induction of cell cycle arrest in human DBTRG-05MG cells assessed as accumulation at G2/M phase at 112.4 uM after 48 hrs in presence of TMZ by propidium iodide staining based flow cytometric analysis (reference value: 30.08 +/- 0.1%); type: functional
RG2 [33] = assay: Synergistic cytotoxicity against rat RG2 cells assessed as synergistic effect index at 89.9 uM after 48 hrs in presence of 206 uM TMZ by MTT assay; type: functional

**Q.** For Cn1nnc2c(C(N)=O)ncn2c1=O [TEMOZOLOMIDE], which fold change (FC) [1] is on record?
**A.** The fold change (FC) was 1.2.

**Q.** What about the “fold change (FC)” value (DBTRG-05MG [2]) of the same compound?
**A.** Its value is 0.8.

**Q.** What about the Activity [3] of the same compound?
**A.** Its Activity is “Non-Toxic”.

**Q.** What about the fold change (FC) (DBTRG-05MG [4]) of the same compound?
**A.** Its fold change (FC) is 1.2.

**Q.** And the fold change (FC) [5]?
**A.** Its fold change (FC) is 0.7.

**Q.** What about the Activity (RG2 [6]) of the same compound?
**A.** The Activity was 24.46%.

**Q.** And the Activity (DBTRG-05MG [7])?
**A.** The Activity was 43.53%.

**Q.** And the fold change (FC) (RG2 [8])?
**A.** The fold change (FC) was 0.9.

**Q.** And the “fold change (FC)” value (RG2 [9])?
**A.** Its value is 1.5.

**Q.** And the “fold change (FC)” value (RG2 [10])?
**A.** The value was 0.4.

**Q.** What about the “fold change (FC)” value (DBTRG-05MG [11]) of the same compound?
**A.** Its value is 0.5.

**Q.** Which “fold change (FC)” value (RG2 [12]) does the source give for C[C@@H]1CC[C@H]2C(C)(C)[C@H]3C[C@@]12CC[C@@]3(C)O [CEDROL] here?
**A.** Its value is 3.3.

**Q.** And the CI (RG2 [13])?
**A.** Its CI is 1.06.

**Q.** What about the CI (RG2 [14]) of the same compound?
**A.** The CI was 0.98.

**Q.** What about the CI [15] of the same compound?
**A.** The CI was 0.88.

**Q.** What about the fold change (FC) [16] of the same compound?
**A.** Its fold change (FC) is 0.5.

**Q.** And the Activity (DBTRG-05MG [17])?
**A.** The Activity was “Active”.

**Q.** What about the Activity_index (DBTRG-05MG [18]) of the same compound?
**A.** Its Activity_index is 0.72.

**Q.** What about the “fold change (FC)” value [19] of the same compound?
**A.** The value was 1.1.

**Q.** And the CI [20]?
**A.** Its CI is 1.17.

**Q.** And the Activity_index [21]?
**A.** The Activity_index was 0.39.

**Q.** What about the Activity (RG2 [22]) of the same compound?
**A.** The Activity was 17.99%.

**Q.** And the Activity (RG2 [23])?
**A.** Its Activity is 61.9%.

**Q.** What about the “fold change (FC)” value (RG2 [24]) of the same compound?
**A.** Its value is 1.4.

**Q.** What about the “fold change (FC)” value (RG2 [25]) of the same compound?
**A.** Its value is 1.2.

**Q.** What about the “fold change (FC)” value [26] of the same compound?
**A.** The value was 0.7.

**Q.** And the Activity (RG2 [27])?
**A.** The Activity was 9.09%.

**Q.** And the fold change (FC) [28]?
**A.** Its fold change (FC) is 1.2.

**Q.** And the CI (RG2 [29])?
**A.** Its CI is 0.79.

**Q.** What about the CI [30] of the same compound?
**A.** The CI was 0.87.

**Q.** What about the Activity_index [31] of the same compound?
**A.** The Activity_index was 0.58.

**Q.** And the Activity (DBTRG-05MG [32])?
**A.** Its Activity is 38.26%.

**Q.** And the Activity_index (RG2 [33])?
**A.** The Activity_index was 0.69.
